This experiment has as its target SMYD3 (Homo sapiens (Human), UniProt Q9H7B4). In words: SMYD3 biochemical assay (SMYD3 enzyme assay on MEKK2 protein substrate, 3H-SAM scintillation proximity assay). To be noted: read-out: SMYD3 Biochem IC50. In outline: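 Native full-length human SMYD3, expressed in E. coli, was preincubated with compound for 30 min at room temperature in 25 mM Tris-Cl pH 8.0, 1 mM TCEP, 0.005% BSG and 0.005% Tween 20. ³H-SAM plus GST-MEKK2 then started the reaction. It was stopped with unlabeled SAM (100 uM final), and methylated MEKK2 was read by SPA.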
On the technique in general: SPA uses beads or plates that emit light when radiolabelled molecules are held near them.

A value given as a limit tells only on which side of the number the result lay.

These results are taken from patent US10266526B2, “Substituted 1,2,3-triazoles as SMYD inhibitors for treating cancer” (EPIZYME, INC., priority 2014, dated 2019).

Chain of SMYD3 (Q9H7B4 whole entry): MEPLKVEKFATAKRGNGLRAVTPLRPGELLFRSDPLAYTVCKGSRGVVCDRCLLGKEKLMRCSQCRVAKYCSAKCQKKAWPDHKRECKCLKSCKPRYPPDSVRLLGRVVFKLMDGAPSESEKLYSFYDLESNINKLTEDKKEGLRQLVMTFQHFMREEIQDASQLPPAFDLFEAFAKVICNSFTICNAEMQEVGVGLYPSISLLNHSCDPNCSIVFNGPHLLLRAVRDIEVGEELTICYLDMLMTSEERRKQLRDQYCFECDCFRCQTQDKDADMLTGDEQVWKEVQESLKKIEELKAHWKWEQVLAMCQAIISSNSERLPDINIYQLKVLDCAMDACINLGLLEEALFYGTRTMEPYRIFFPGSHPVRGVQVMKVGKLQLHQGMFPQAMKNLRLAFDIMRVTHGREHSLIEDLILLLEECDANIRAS

With `Cc1nn(C(C)C(=O)N[C@H]2CC[C@H](NC(=O)CCN)CC2)c(C)c1Br` (stereo partly drawn) [compound 431, 3-amino-N-((1r,4r)-4-(2-(4-bromo-3,5-dimethyl-1H-pyrazol-1-yl)propanamido)cyclohexyl)propanamide], the IC50 is more than 100 µM.

In the case of `CC1=NN(c2ccc(C(=O)N[C@H]3CC[C@H](NC(=O)CCN)CC3)cc2)C(=O)C1` [compound 432, N-((1r,4r)-4-(3-aminopropanamido)cyclohexyl)-4-(3-methyl-5-oxo-4,5-dihydro-1H-pyrazol-1-yl)benzamide], the IC50 stood at 37 µM.

With `CC(NC(=O)[C@H]1C[C@H](O)CN1)C1CCN(C(=O)[C@H](C)N)CC1` (stereo partly drawn) [compound 433, (2R,4S)-N-(1-(1-(L-alanyl)piperidin-4-yl)ethyl)-4-hydroxypyrrolidine-2-carboxamide], the IC50 was determined as 45.6 µM.

With `NCCC(=O)N[C@H]1CC[C@H](NC(=O)[C@H]2C[C@H](O)CN2)CC1` [compound 434, (2R,4S)-N-((1r,4r)-4-(3-aminopropanamido)cyclohexyl)-4-hydroxypyrrolidine-2-carboxamide], the IC50 is more than 100 µM.

For `N[C@H]1CC[C@H](NC(=O)[C@H]2C[C@H](O)CN2)CC1` [compound 435, (2R,4S)-N-((1r,4r)-4-aminocyclohexyl)-4-hydroxypyrrolidine-2-carboxamide], the IC50 was more than 100 µM.

Consider `N[C@H]1CC[C@H](NC(=O)[C@H]2CCc3ccccc3N2)CC1` [compound 436, (R)-N-((1r,4r)-4-aminocyclohexyl)-1,2,3,4-tetrahydroquinoline-2-carboxamide], for which the IC50 turned out to be 12.5 µM.

`NCCC(=O)N[C@H]1CC[C@H](NC(=O)c2ccc(N)cn2)CC1` [compound 437, 5-amino-N-((1r,4r)-4-(3-aminopropanamido)cyclohexyl)picolinamide]: the IC50 was more than 100 µM.

As for `Nc1ccc(C(=O)N[C@H]2CC[C@H](N)CC2)nc1` [compound 438, 5-amino-N-((1r,4r)-4-aminocyclohexyl)picolinamide], the IC50 was more than 100 µM.

In the case of `NCCC(=O)N[C@H]1CC[C@H](NC(=O)c2ccc(Cl)cc2C(F)(F)F)CC1` [compound 439, N-((1r,4r)-4-(3-aminopropanamido)cyclohexyl)-4-chloro-2-(trifluoromethyl)benzamide], the IC50 was more than 100 µM.

Take `NCCC(=O)N[C@H]1CC[C@H](NC(=O)c2cccc3c2OC(F)(F)O3)CC1` [compound 440, N-((1r,4r)-4-(3-aminopropanamido)cyclohexyl)-2,2-difluorobenzo[d][1,3]dioxole-4-carboxamide]: the IC50 is more than 100 µM.

Take `CC(NC(=O)c1cc2cccc(O)c2cc1O)C1CCN(C(=O)[C@H](C)N)CC1` (stereo partly drawn) [compound 441, N-(1-(1-(L-alanyl)piperidin-4-yl)ethyl)-3,5-dihydroxy-2-naphthamide]: the IC50 came out at 37.5 µM.

Consider `NCCC(=O)N[C@H]1CC[C@H](NC(=O)c2cncs2)CC1` [compound 442, N-((1r,4r)-4-(3-aminopropanamido)cyclohexyl)thiazole-5-carboxamide], for which the IC50 was more than 100 µM.

Consider `NCCC(=O)N[C@H]1CC[C@H](NC(=O)Cc2cc(F)cc(F)c2)CC1` [compound 443, 3-amino-N-((1r,4r)-4-(2-(3,5-difluorophenyl)acetamido)cyclohexyl)propanamide], for which the IC50 is more than 100 µM.

For the molecule `CC(=O)Nc1ccc(C(=O)N[C@H]2CC[C@H](N)CC2)nc1` [compound 444, 5-acetamido-N-((1r,4r)-4-aminocyclohexyl)picolinamide], the IC50 was more than 100 µM.

Turning to `CC(NC(=O)c1cn2ncccc2n1)C1CCN(C(=O)[C@H](C)N)CC1` (stereo partly drawn) [compound 445, N-(1-(1-(L-alanyl)piperidin-4-yl)ethyl)imidazo[1,2-b]pyridazine-2-carboxamide], the IC50 was more than 100 µM.

As for `NCCC(=O)N[C@H]1CC[C@H](NC(=O)c2cn3ncccc3n2)CC1` [compound 446, N-((1r,4r)-4-(3-aminopropanamido)cyclohexyl)imidazo[1,2-b]pyridazine-2-carboxamide], the IC50 was more than 100 µM.

Turning to `N[C@H]1CC[C@H](NC(=O)c2cn3ncccc3n2)CC1` [compound 447, N-((1r,4r)-4-aminocyclohexyl)imidazo[1,2-b]pyridazine-2-carboxamide], the IC50 is more than 100 µM.

On to `N[C@H]1CC[C@H](NC(=O)Cc2ccc3c(c2)CC(=O)N3)CC1` [compound 448, N-((1r,4r)-4-aminocyclohexyl)-2-(2-oxoindolin-5-yl)acetamide], for which the IC50 was more than 100 µM.

Regarding `NCCC(=O)N[C@H]1CC[C@H](NS(=O)(=O)c2ccc3c(c2)CC(=O)N3)CC1` [compound 449, 3-amino-N-((1r,4r)-4-((2-oxoindoline)-5-sulfonamido)cyclohexyl)propanamide], the IC50 was more than 100 µM.

For `CC1Oc2ccc(C(=O)NC(C)C3CCN(C(=O)[C@H](C)N)CC3)cc2NC1=O` (stereo partly drawn) [compound 450, N-(1-(1-(L-alanyl)piperidin-4-yl)ethyl)-2-methyl-3-oxo-3,4-dihydro-2H-benzo[b][1,4]oxazine-6-carboxamide], the half-maximal inhibitory concentration (IC50) was determined as 25.4 µM.

`CC1Oc2ccc(C(=O)N[C@H]3CC[C@H](NC(=O)CCN)CC3)cc2NC1=O` (stereo partly drawn) [compound 451, N-((1r,4r)-4-(3-aminopropanamido)cyclohexyl)-2-methyl-3-oxo-3,4-dihydro-2H-benzo[b][1,4]oxazine-6-carboxamide]: the IC50 came out at 9.9 µM.

Consider `CC1Oc2ccc(C(=O)N[C@H]3CC[C@H](N)CC3)cc2NC1=O` (stereo partly drawn) [compound 452, N-((1r,4r)-4-aminocyclohexyl)-2-methyl-3-oxo-3,4-dihydro-2H-benzo[b][1,4]oxazine-6-carboxamide], for which the IC50 was determined as 39.1 µM.

`Cc1nn(C(C)C(=O)N[C@H]2CC[C@H](N)CC2)c(C)c1Br` (stereo partly drawn) [compound 454, N-((1r,4r)-4-aminocyclohexyl)-2-(4-bromo-3,5-dimethyl-1H-pyrazol-1-yl)propanamide]: the IC50 is more than 100 µM.

Turning to `N[C@H]1CC[C@H](NC(=O)c2ccc(-n3cncn3)cc2)CC1` [compound 455, N-((1r,4r)-4-aminocyclohexyl)-4-(1H-1,2,4-triazol-1-yl)benzamide], the IC50 is more than 100 µM.

Turning to `NCCC(=O)N[C@H]1CC[C@H](NC(=O)c2cc3ccccc3nc2O)CC1` [compound 456, N-((1r,4r)-4-(3-aminopropanamido)cyclohexyl)-2-hydroxyquinoline-3-carboxamide], the IC50 came to 22 µM.

For `N[C@H]1CC[C@H](NC(=O)Cc2cccc(C(F)(F)F)c2)CC1` [compound 457, N-((1r,4r)-4-aminocyclohexyl)-2-(3-(trifluoromethyl)phenyl)acetamide], the IC50 is more than 100 µM.

As for `Cc1nc2ccccc2c(C(=O)N[C@H]2CC[C@H](N)CC2)c1N` [compound 458, 3-amino-N-((1r,4r)-4-aminocyclohexyl)-2-methylquinoline-4-carboxamide], the IC50 is more than 100 µM.

Consider `NC1CCC(NC(=O)[C@H]2Cc3ccccc3CN2)CC1` (stereo partly drawn) [compound 459, (3R)-N-(4-aminocyclohexyl)-1,2,3,4-tetrahydroisoquinoline-3-carboxamide], for which the IC50 was more than 100 µM.

`N[C@H]1CC[C@H](NC(=O)c2cc3cccc(O)c3cc2O)CC1` [compound 460, N-((1r,4r)-4-aminocyclohexyl)-3,5-dihydroxy-2-naphthamide]: the IC50 amounted to 20.7 µM.

With `O=C1CC2CN(C(=O)CC3CCNCC3)CCC2N1` (stereo not drawn) [compound 461, 5-(2-(piperidin-4-yl)acetyl)octahydro-2H-pyrrolo[3,2-c]pyridin-2-one], the IC50 was more than 100 µM.

The term IC50 denotes the concentration that gives 50% inhibition.
